Measured values from PMC9959048, “Lipidation of Naturally Occurring α-Helical Antimicrobial Peptides as a Promising Strategy for Drug Design” (International Journal of Molecular Sciences, 2023).
Values after ≈ are worked out from the molar mass of the structure shown. Residues, ends and D or L forms follow the SMILES beside them. *: point of attachment. Octanoyl = CCCCCCCC(=O)*

How the values were obtained:
C. albicans PCM2566 = type: cell-based, Candida albicans; conditions: PCM2566, 24 h
In short: (§1)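 Lipopeptides serially diluted per CLSI; 24 h at 35 °C (yeasts, RPMI-1640 buffered with MOPS) or 37 °C (bacteria, MHB). Triplicate OD600 readings converted to growth inhibition percentages.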

C. krusei CCM8271 = type: cell-based, Candida krusei; conditions: CCM8271, 24 h
In short: as §1

S. epidermidis PCM2118 = type: cell-based, Staphylococcus epidermidis; conditions: PCM2118, 24 h
In short: as §1

S. epidermidis PCM521 = type: cell-based, Staphylococcus epidermidis; conditions: PCM521, 24 h
In short: as §1

POPG liposomes = assay: CD, α-helix content in POPG liposomes; type: physicochemical; conditions: 25 °C, peptide 0.15 mg/mL, 1.3 mM POPG, from ellipticity at 222 nm
[1] = Dynamic light scattering of lipopeptide assemblies; type: physicochemical; conditions: DLS, sonicated 10 min, incubated 1 h, 90° side scatter
Protocol: The hydrodynamic diameters of the lipopeptide nanoaggregates were examined by the Litesizer 500 (Anton-Paar GmbH, Graz, Austria) at 25 °C. The measurements were carried out at various lipopeptide concentrations ranging from 0.5 to 2 mM and from 0.25 to 2 mM, in water and PBS, respectively. Two-fold serial dilutions were used to obtain the sequential concentrations. Each sample was sonicated for 10 min followed by incubation for 1 h at 25 °C and transferred to the polystyrene cuvette. The detector was positioned at a side scatter position (90°). The analysis of the obtained results and report generation was performed with KalliopeTM software (Anton-Paar GmbH, Graz, Austria).

E. coli PCM2057 = type: cell-based, Escherichia coli; conditions: PCM2057, 24 h
In short: as §1

[2] = test system: human prostate cancer cells (PC3 line, ATCC); assay: MTT cytotoxicity assay; type: cell-based; conditions: IC50 against HaCaT divided by IC50 for PC3
Protocol: (§2) The prepared plates were further incubated for 48 h. […] The control cell viability was assumed to be 100%. Three independent experiments were carried out in three repetitions.

[3] = test system: human breast cancer cells (MCF-7 line, ATCC); assay: MTT cytotoxicity assay; type: cell-based; conditions: IC50 against HaCaT divided by IC50 for MCF-7
Protocol: as §2

POPG LUVs = assay: Isothermal titration calorimetry, binding to POPG LUVs; conditions: ITC, 25 °C, 0.05 or 0.07 mM peptide titrated with 1.3 or 1.8 mM POPG LUVs; one set of sites model (C10-LL-I: two sets of sites, first line)

CCCCCCCC(=O)N[C@H](C(=O)N[C@@H](CCCCN)C(=O)N[C@@H](CCCCN)C(=O)N[C@H](C(=O)N[C@@H](CC(C)C)C(=O)N[C@@H](CO)C(=O)N[C@@H](CCCCN)C(=O)N[C@H](C(=O)N[C@@H](CCCCN)C(=O)N[C@@H](CCCCN)C(=O)N[C@@H](CC(C)C)C(=O)N[C@@H](CC(C)C)C(=O)N[C@@H](CCCCN)C(N)=O)[C@@H](C)CC)[C@@H](C)CC)[C@@H](C)CC [C8-LK6] (Octanoyl-IKKILSKIKKLLK-NH2)
MIC, C. albicans PCM2566 (C. albicans PCM2566): 12.5 µg/mL (≈ 7.45 µM) | MIC, C. krusei CCM8271 (C. krusei CCM8271): 6.25 µg/mL (≈ 3.72 µM) | MIC, S. epidermidis PCM2118 (S. epidermidis PCM2118): 6.25 µg/mL (≈ 3.72 µM) | MIC, S. epidermidis PCM521 (S. epidermidis PCM521): 6.25 µg/mL (≈ 3.72 µM) | α-Helix percentage, POPG (POPG liposomes): 24% | hydrodynamic diameter, peak of highest scattering intensity ([1]; 0.25 mM in PBS pH 7.4, 25 °C): 2596 ± 512 nm | hydrodynamic diameter, peak of highest scattering intensity ([1]; 0.5 mM salt-free aqueous solution, 25 °C): 327 ± 102 nm | hydrodynamic diameter ([1]; 2 mM in PBS pH 7.4, 25 °C): 3047 ± 750 nm | MIC, E. coli PCM2057 (E. coli PCM2057): >50 µg/mL | SI PC3 [2]: 1.50 | SI MCF-7 [3]: 3.44 | pKITC, POPG (POPG LUVs): 6.31 ± 0.34
